Holding throughout (type): in vivo, cd1 nu/nu mice (human GBM cell line)
Assay [1] has as its system U87MG glioblastoma CDX. The experiment in a line: Subcutaneous U87MG glioblastoma CDX: tumor weight and time of tumor progression. The conditions noted are these: for tumor weight [%]: relative to vehicle = 100. The method, then: Effects of KcAng(1-7) were evaluated in vivo in a subcutaneous GBM xenograft model in nude mice. Insurgence of neurologic phenomena and differences in the survival rates were evaluated. Human GBM cell lines U87MG and U251MG were used. Cell lines were grown in DMEM nutrient mixture supplemented with 10% fetal bovine serum, 1% penicillin/streptomycin, and 25 mM HEPES buffer. All cell lines were cultured at 37° C. in a humidified atmosphere consisting of 5% CO2 and 95% air. Medium was changed every 2 days and the cell morphology was evaluated under microscope daily.
Six-week-old male athymic nude mice (age 5-7 weeks) were housed with free access to food and water in a temperature-controlled room. Each group is represented by 10 xenograft cd1 nu/nu mice. The mice were injected s.c. in the right distal hind limb with one million of cultured human tumor cell lines suspended in 0.15 mL of 2:1 solution of PBS/Matrigel (Matrigel BD Biosciences). Xenografts were measured every four days with a digital caliper in two perpendicular dimensions. Tumor volume was calculated according to the following formula:
Tumor volume=(tumor width)×(tumor width)×(tumor length)÷2
At the end of experiments, mice were euthanized and tumors removed. Weight loss or other signs of distress such as hunched posture were checked during and after treatments.
Efficacy of treatment was evaluated by: (1) the size of tumors (vehicle control and treated), (2) the relative weight at the end of experiment, and (3) the indirect evaluation of angiogenesis by determining hemoglobin levels.
In vivo tumor response to treatment was evaluated using the following parameters: (i) Complete response (CR): defined as the disappearance of a measurable lesion, (ii) Partial response (PR): defined as a reduction of greater than 50% of the sum of the products of the cross-sectional diameters of the measurable lesion, (iii) Stable disease (SD): defined as a reduction of less than 50% or an increase of less than 25% in the sum of the products of the cross-sectional diameters of the measurable lesions, (iv) Tumor progression (TP): defined as an increase of greater than […] in the sum of the products of the cross-sectional diameters of the measured lesion, (v) Time to progression (TTP) defining the tumor growth delay. Tumor progression was calculated through the analysis of bioluminescence imaging (BLI) photon counts and when possible through the analyses of tumor volumes calculated by magnetic resonance imaging (MRI), (vi) Disease free survival (DFS) is the time elapsed between the time point at which no luciferase activity is detectable anymore and the death of the animal, (vii) Overall survival (OS) is the time elapsed between tumor inoculation and death of the animal. […] Luciferase transfected cells were used for bioluminescence evaluations.
Data are presented as mean and standard error of the mean (SEM) or standard deviation (SD). Statistical comparisons between control and treated groups were established by carrying out the Kruskal-Wallis test (a nonparametric one-way analysis of variance) or the Mann-Whitney test (in the case of two groups). The level of significance was corrected by multiplying the P value by the number of comparisons performed (n) according to […] correction. TP, TTP and DFS were analyzed by Kaplan-Meier curves and Gehan's generalized Wilcoxon test. All statistical analyses were undertaken using SPSS 10.0.
Mice with U87MG cell CDX were randomized at day 0. KcAng(1-7) was injected daily subcutaneously (0.2 μg/kg) starting at day 0 until the (ethical) endpoint maximally at day 42. TMZ was administered at 16 mg/kg during 5 consecutive days, that is from […]. Volumetric evaluation of the tumor was performed every 4 days and tumor weight was measured at the end of the experiment.
Synergism was determined using the methods described in Clarke et al. Breast Cancer Research and Treatment 46:255-278 (1997).
Mice with U87MG cell CDX were randomized at day 0. […]

Assay [2] concerns U87MG glioblastoma CDX. The experiment in a line: Tumor hemoglobin level (indirect angiogenesis) in U87MG CDX. The conditions noted are these: KcAng(1-7) 1 μg/kg/d, Losartan 20 mg/kg/d, or both. The procedure:
Efficacy of treatment was evaluated by: […] Mice with U87MG cell CDX were randomized at day 0. KcAng(1-7) was injected subcutaneously (1 μg/kg) on a daily basis. Losartan was administered intraperitoneal at 20 mg/kg/day. […] In brief, tumors were homogenized in double-distilled water. Eighty microliters of homogenates were mixed with 1 mL of Drabkin's solution and incubated for 15 min at room temperature. After centrifugation at 400×g for 5 min, the supernatants were subjected to absorbance measurement at 540 nm. The absorption, which is proportional to hemoglobin concentration, was divided by tumor weight.

The test system of assay [3] is U251MG glioblastoma CDX. Kind of assay: Subcutaneous U251MG glioblastoma CDX: time of tumor progression. The conditions noted are these: KcAng(1-7) 1 μg/kg/d, Losartan 20 mg/kg/d, or both. The method, then:
Effects of KcAng(1-7) were evaluated in vivo in a subcutaneous GBM xenograft model in nude mice. Insurgence of neurologic phenomena and differences in the survival rates were evaluated. Human GBM cell lines U87MG and U251MG were used. Cell lines were grown in DMEM nutrient mixture supplemented with 10% fetal bovine serum, 1% penicillin/streptomycin, and 25 mM HEPES buffer. All cell lines were cultured at 37° C. in a humidified atmosphere consisting of 5% CO2 and 95% air. Medium was changed every 2 days and the cell morphology was evaluated under microscope daily. Six-week-old male athymic nude mice (age 5-7 weeks) were housed with free access to food and water in a temperature-controlled room. Each group is represented by 10 xenograft cd1 nu/nu mice. […] Xenografts were measured every four days with a digital caliper in two perpendicular dimensions. Tumor volume was calculated according to the following formula: In vivo tumor response to treatment was evaluated using the following parameters: […] […] TP, TTP and DFS were analyzed by Kaplan-Meier curves and Gehan's generalized Wilcoxon test. […]

The test system of assay [4] is U251MG glioblastoma CDX. The experiment in a line: Tumor hemoglobin level (indirect angiogenesis) in U251MG CDX. Conditions: KcAng(1-7) 1 μg/kg/d, Losartan 20 mg/kg/d, or both. The procedure: Efficacy of treatment was evaluated by: […] In brief, tumors were homogenized in double-distilled water. Eighty microliters of homogenates were mixed with 1 mL of Drabkin's solution and incubated for 15 min at room temperature. After centrifugation at 400×g for 5 min, the supernatants were subjected to absorbance measurement at 540 nm. The absorption, which is proportional to hemoglobin concentration, was divided by tumor weight. Effect of KcAng(1-7) and Losartan against heterotopic U251MG cell culture-based xenografts (CDX) in mice. Animals were treated either with vehicle, treated with 20 mg/kg/d Losartan, treated with 1 μ[…](1-7) or treated with a combination of KcAng(1-7) and with Losartan.

Each structure is given as a SMILES string.

As to `CCCCc1nc(Cl)c(CO)n1Cc1ccc(-c2ccccc2-c2nn[nH]n2)cc1` [Losartan, reference compound], the “Time of tumor progression - TTP, mean (days ± SEM)” value amounted to 13.0 ± 0.6 days in the assay on U87MG glioblastoma CDX [1] (KcAng(1-7) 1 μg/kg/d s.c., Losartan 20 mg/kg/d i.p., or both) and 10.6 ± 0.6 days with U251MG glioblastoma CDX [3]. Moreover, in the assay with U87MG glioblastoma CDX [1] (KcAng(1-7) 1 μg/kg/d s.c., Losartan 20 mg/kg/day i.p., or both), the “Tumor weight, mean (mg ± SEM)” value was 830 ± 57 mg. In addition, in the assay with U87MG glioblastoma CDX [1] (KcAng(1-7) 1 μg/kg/d, Losartan 20 mg/kg/d, or both), the “tumor weight [%]” value is 79.8%. Also, the “Tumor hemoglobin level, mean (± SEM)” value in the assay on U87MG glioblastoma CDX [2] is 15.2 ± 1.0 mg hemoglobin/g of tissue; in the assay on U251MG glioblastoma CDX [4], 32.1 ± 3.1 mg Hb/g of tissue.

For the compound `Cn1nnc2c(C(N)=O)ncn2c1=O` [Temozolomide, temozolomide, reference compound], the “Time of tumor progression - TTP, mean (days ± SD)” value in the assay with U87MG glioblastoma CDX [1] (KcAng(1-7) 0.2 μg/kg/d s.c., TMZ 16 mg/kg for 5 days, or both) amounted to 17.00 ± 0.54 days. Besides, the “Tumor weight, mean (mg ± SD)” value in the assay with U87MG glioblastoma CDX [1] (end of experiment, KcAng(1-7) 0.2 μg/kg/d s.c., TMZ 16 mg/kg for 5 days, or both) is recorded as 445 ± 28 mg. Also, in the assay with U87MG glioblastoma CDX [1] (KcAng(1-7) 0.2 μg/kg/d, TMZ 16 mg/kg, or both), the “tumor weight [%]” value amounted to 42.8%.

For the origin of these results see patent US20220257698A1, “ANGIOTENSIN TYPE 2 (AT2) RECEPTOR AGONISTS FOR USE IN THE TREATMENT OF CANCER” (LANTHIOPEP B.V., priority 2019, published 2022).
